Reference: article PMC9030254, “Target Hopping from Protein Kinases to PXR: Identification of Small-Molecule Protein Kinase Inhibitors as Selective Modulators of Pregnane X Receptor from TüKIC Library” (Cells, 2022)
pIC50: −log10 of the molar value.

Columns and labels:
Assay type in all cases: cell-based
CAR1 = target: T1, CAR1 (Homo sapiens, UniProt Q14994); assay: Nuclear receptor selectivity reporter assay, CAR1; conditions: HepG2, 10 µM
T1 construct: expressed in transfected cells; host or cells: HepG2
T1 sequence (Q14994 1-348 isoform Q14994-2): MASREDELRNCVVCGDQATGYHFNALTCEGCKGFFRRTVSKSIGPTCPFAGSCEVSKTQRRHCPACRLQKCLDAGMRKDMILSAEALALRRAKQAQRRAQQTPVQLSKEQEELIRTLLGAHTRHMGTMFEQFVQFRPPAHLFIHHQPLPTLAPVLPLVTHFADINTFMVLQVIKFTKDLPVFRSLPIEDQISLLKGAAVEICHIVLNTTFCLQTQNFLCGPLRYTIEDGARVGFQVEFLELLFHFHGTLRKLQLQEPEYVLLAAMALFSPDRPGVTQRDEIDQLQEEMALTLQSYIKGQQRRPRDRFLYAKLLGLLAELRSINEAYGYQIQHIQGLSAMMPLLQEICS
Method: For testing nuclear receptor selectivity and LBP-filled PXR mutant activation, transient batch transfection was conducted as above, but with HepG2 cells and the following plasmids, with amounts per well of 0.23–0.27 µg pGL4-CYP3A4(-7830Δ7208-364) or pGL3(DR3)3Tk (as reporter for VDR), 0.01 µg pMetLuc2control, and 0.03 µg either CAR1, CAR3, VDR, or PXR(S208W/S247W/C284W) expression plasmids. In addition, 0.03 µg RXRα expression plasmid was added to CAR3 transfections. Metridia luciferase activity was measured from 10 µL of medium supernatant after adding 100 µL Renilla luciferase assay solution.
Figure 6 Selectivity of novel PXR ligands within the NR1I group of nuclear receptors. HepG2 cells were transiently transfected with CYP3A4 reporter and expression plasmids encoding (A) CAR1 or (B) CAR3, or (C) direct repeat (DR3)3 reporter and expression plasmid encoding VDR. Cells were treated with 0.2% DMSO or 10 µM chemicals as indicated. 1α,25(OH)2D3 was used at 1 µM.

[1] = target: T2, PXR interaction with coactivator SRC1 (Homo sapiens, UniProt O75469); assay: Mammalian two-hybrid coactivator interaction assay; conditions: for induction of interaction of PXR with coactivator SRC1: HepG2, 10 µM, alone; for effect on rifampicin-dependent recruitment of SRC1 by PXR: HepG2, 10 µM compound + 10 µM rifampicin
T2 construct: VP16-PXR LBD(108–434); expressed in transfected cells; host or cells: HepG2
T2 sequence (O75469 108-434): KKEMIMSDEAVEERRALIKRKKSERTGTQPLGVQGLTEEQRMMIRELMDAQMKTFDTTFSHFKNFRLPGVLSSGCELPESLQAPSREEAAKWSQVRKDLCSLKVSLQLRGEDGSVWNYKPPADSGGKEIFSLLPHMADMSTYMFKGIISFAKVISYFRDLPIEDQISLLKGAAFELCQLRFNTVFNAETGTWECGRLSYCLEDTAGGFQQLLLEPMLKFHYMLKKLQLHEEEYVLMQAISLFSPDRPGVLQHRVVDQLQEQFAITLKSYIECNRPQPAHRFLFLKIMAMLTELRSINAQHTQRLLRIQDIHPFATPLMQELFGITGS
Method: (§1) In mammalian two-hybrid corepressor/coactivator interaction assays, per well 0.24 µg pGL4-G5, 0.01 µg pGL4.75[hRluc/CMV], 0.03 µg expression plasmid encoding VP16-AD/PXR LBD fusion, and 0.03 µg expression plasmids encoding GAL4-DBD/SRC1-RID or GAL4-DBD/SMRT-RID fusions, respectively, were used. For the SMRT corepressor interaction assay, additionally 0.015 µg of RXRα expression plasmid was included.

[2] = target: T3, PXR interaction with corepressor SMRT (Homo sapiens, UniProt O75469); assay: Mammalian two-hybrid corepressor interaction assay; conditions: HepG2, 10 µM
T3 construct: VP16-PXR LBD(108–434); expressed in transfected cells; host or cells: HepG2
T3 sequence (O75469 108-434): T2 sequence (O75469 108-434)
T3 sequence (P19793 1-462 partner): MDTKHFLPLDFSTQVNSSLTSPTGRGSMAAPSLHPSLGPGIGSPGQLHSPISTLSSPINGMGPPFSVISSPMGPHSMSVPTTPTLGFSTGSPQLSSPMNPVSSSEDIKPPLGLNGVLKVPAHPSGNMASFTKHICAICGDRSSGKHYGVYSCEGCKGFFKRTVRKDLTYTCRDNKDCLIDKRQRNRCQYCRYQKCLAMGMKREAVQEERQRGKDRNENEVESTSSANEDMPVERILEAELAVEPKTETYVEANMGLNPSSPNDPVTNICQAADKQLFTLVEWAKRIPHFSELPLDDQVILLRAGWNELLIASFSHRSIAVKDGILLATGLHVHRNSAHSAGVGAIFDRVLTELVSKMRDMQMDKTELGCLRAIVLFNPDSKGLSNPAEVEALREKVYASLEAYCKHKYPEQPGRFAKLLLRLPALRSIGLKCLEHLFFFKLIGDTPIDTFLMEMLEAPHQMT
Method: as §1

PXR = target: T4, PXR (Homo sapiens, UniProt O75469); assay: PXR-dependent CYP3A4 reporter gene assay, antagonist mode (cotreatment with rifampicin); parameters: expressed in transfected cells; host or cells: H-P cells (HepG2 stably transfected with PXR); conditions: for pIC50: read-out: IC50, inhibition of rifampicin-induced PXR activation
T4 sequence (O75469 1-434): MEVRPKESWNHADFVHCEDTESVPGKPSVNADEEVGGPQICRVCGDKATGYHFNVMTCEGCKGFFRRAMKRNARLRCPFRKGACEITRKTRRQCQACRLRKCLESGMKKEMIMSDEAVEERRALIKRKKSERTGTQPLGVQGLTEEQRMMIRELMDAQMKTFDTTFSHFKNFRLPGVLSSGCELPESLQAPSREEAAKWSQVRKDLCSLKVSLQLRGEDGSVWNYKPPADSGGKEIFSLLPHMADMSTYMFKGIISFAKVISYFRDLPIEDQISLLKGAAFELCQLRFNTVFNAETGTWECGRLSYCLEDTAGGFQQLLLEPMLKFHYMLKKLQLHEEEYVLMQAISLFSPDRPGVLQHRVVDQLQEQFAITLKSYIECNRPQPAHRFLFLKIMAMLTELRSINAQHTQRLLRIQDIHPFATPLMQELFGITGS
Source text: Figure 1 Identification of novel putative PXR ligands from the TüKIC library. (A) Workflow of the in silico screening and structures of the identified candidate ligands. (B) Concentration–response curves of the novel inhibitors for antagonism of PXR activity. (C) Concentration–response curves of the same compounds and 109 for PXR activation. […] Data are expressed as mean ± SD fold induction with respect to the DMSO-treated cells from three independent experiments. IC50 and EC50 values calculated with nonlinear regression using formula with 3 parameters (constraint bottom =1) using GraphPadPrism.
Supplementary Figure S1. Effects of 56 in silico screened TüKIC compounds (A) alone or (B) in combination […]
H-P cells were transiently
Luciferase activities were measured after 24 h treatment. Data is expressed as mean ± SD %. Activation was calculated according to Zhu et al. from three independent experiments with technical triplicates. Fold induction achieved by 10 μM […]
Green and red dashed lines represent the 100% and 50% activation, respectively.
(1 picture or pasted object on this page, not shown here)

SMILES	activation of CAR1 (CAR1)	induction of interaction of PXR with coactivator SRC1 [1]	effect on constitutive interaction of PXR with corepressor SMRT [2]	inhibition of rifampicin-mediated induction of CYP3A4 reporter activity (PXR; H-P cells, 10 µM compound + 10 µM rifampicin, 24 h)	suppression of constitutive activity of CAR1 (CAR1) [%]	effect on rifampicin-dependent recruitment of SRC1 by PXR [1]	pIC50 (PXR)
O=C(Nc1ccc(F)c(Nc2ccc3c(c2)CCCCC3=O)c1)c1cccc(F)c1 [Compound 109]	did not reach statistical significance	interaction with SRC1 was induced	impaired the constitutive interaction of PXR with the corepressor	does not inhibit PXR	–	–	–
Cc1ccc(NC(=O)Cc2ccccc2)cc1Nc1ccc2c(c1)CCCCC2=O [Compound 73]	–	did not induce any interaction of PXR with coactivator SRC1	impaired the constitutive interaction of PXR with the corepressor	–	30	abrogated the rifampicin-dependent recruitment of SRC1 by PXR	5.08
O=C(Cc1ccccc1)Nc1ccc(F)c(Nc2ccc3c(c2)CCCCC3=O)c1 [Compound 100]	–	did not induce any interaction of PXR with coactivator SRC1	impaired the constitutive interaction of PXR with the corepressor	–	30	abrogated the rifampicin-dependent recruitment of SRC1 by PXR	5.55
